Laboratory results from PubChem BioAssay (NCI).
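Five compound concentrations were applied to cells in 96-well plates for 48 hours; endpoints were derived by simple linear interpolation of the resulting dose-response curve. GI50 marks 50% less growth. TGI: concentration producing complete growth inhibition.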 Where a SMILES comes first, the peptide text is derived from it. [ ]: non-standard residue; d: D form.

Columns and labels:
Assay in all cases: NCI-60 cell line screen, 48 h
[1] = system: U251 CNS
[2] = system: OVCAR-5 ovarian
[3] = system: UO-31 renal
[4] = system: SF-539 CNS
[5] = system: HCT-116 colon
[6] = system: UACC-257 melanoma
[7] = system: LOX IMVI melanoma
[8] = system: KM12 colon
[9] = system: COLO 205 colon
[10] = system: SNB-19 CNS
[11] = system: SW-620 colon
[12] = system: HT29 colon
[13] = system: CCRF-CEM leukemia
[14] = system: HOP-62 NSCLC
[15] = system: NCI-H460 lung
[16] = system: K-562 leukemia
[17] = system: SNB-75 CNS
[18] = system: HCT-15 colon
[19] = system: CAKI-1 renal

Compound | TGI [1] [µM] | TGI [2] [µM] | TGI [3] [µM] | TGI [4] [µM] | TGI [5] [µM] | TGI [6] [µM] | TGI [7] [µM] | TGI [8] [µM] | TGI [9] [µM] | TGI [10] [µM] | TGI [11] [µM] | TGI [12] [µM] | TGI [13] [µM] | TGI [14] [µM] | TGI [15] [µM] | TGI [16] [µM] | TGI [17] [µM] | TGI [18] [µM] | TGI [19] [µM] | GI50 [16] [µM]
CCn1cnnc1-c1nsc2ccccc12 | > 100 | 92.2 | > 100 | > 100 | > 100 | > 100 | > 100 | > 100 | > 100 | > 100 | > 100 | > 100 | > 100 | > 100 | > 100 | > 100 | 41.8 | > 100 |  | 
CC1=CC2c3cccc4[nH]cc(c34)CC2N(C)C1 (configuration not stated) | > 100 | > 100 | > 76.9 | > 100 | > 100 | > 100 | > 100 | > 100 | > 100 | > 100 | > 100 | > 100 | > 100 | 30.8 | > 100 | > 100 | > 82.4 | > 100 | > 100 | 
CC(C)NC(=O)OCc1c2c(n(C)c1COC(=O)NC(C)C)-c1ccccc1CC2 | 22.5 | 31.6 | 32.4 | 34.3 | 23.2 | 29.7 | 16.9 | 29 | 21.6 | 35.2 | 26 | 30.3 | 7.63 | 18.6 | 28.8 | > 38.5 | 29.4 | 27.2 | 25.5 | 
CC(C)C[C@H](NC(=O)[C@H](CC(C)C)NC(=O)[C@@H](Cc1c[nH]c2ccccc12)NC(=O)[C@H](Cc1ccccc1)NC(=O)[C@@H](Cc1c[nH]c2ccccc12)NC(=O)[C@H](CCC(N)=O)NC(=O)[C@H](CCC(N)=O)NC(=O)[C@H]1CCCN1C(=O)[C@@H](N)CCCCN)C(N)=O (H-K[dP]QQ[dW]F[dW]LL-NH2) | > 100 | > 100 | > 100 | > 100 | > 100 | > 100 | > 100 | > 100 | > 100 | > 100 | > 100 | > 100 | > 100 | > 100 | > 100 | > 100 | > 100 | > 100 |  | 
Cc1ccc2c(=O)c3ccccc3sc2c1 | > 100 | > 100 | > 100 | > 100 | > 100 |  | > 100 | > 100 | > 100 | > 100 | > 100 | > 100 | > 100 | > 100 | > 100 | > 100 |  |  | > 100 | 
CC(Cl)CC(=O)OCC1CCCN2CCCCC12 (configuration not stated) | > 100 | > 100 | > 100 | > 100 | > 100 | > 100 | > 100 | > 100 | > 100 | > 100 | > 100 | > 100 | > 100 | > 100 | > 100 | > 100 | > 100 | > 100 | > 100 | 
O=C(O)C1CCCCN1c1ccccc1[N+](=O)[O-] (configuration not stated) | > 100 | > 100 | > 100 | > 100 | > 100 | > 100 | > 100 |  |  | > 100 | > 100 | > 100 | > 100 | > 100 | > 100 | > 100 | > 100 | > 100 | > 100 | 
O=[N+]([O-])c1ccc(NNN=Nc2ccc(-c3nc4ccccc4s3)cc2)c([N+](=O)[O-])c1 | 76.3 | 71.5 | 51.3 | 42.4 | 33.8 | 36 | 32.7 | > 100 | 31.5 | > 100 | > 100 | 41.3 | > 100 | 48.4 | 56.3 | 86.2 | 82.1 | 66.4 | > 100 | 
CC1=C(C)SC(=C2Sc3nc(O)[nH]c(=O)c3S2)S1 | > 100 | > 100 | > 100 | > 100 | > 100 | > 100 | > 100 | > 100 | > 100 | > 100 | > 100 | > 100 | > 100 | > 100 | > 100 | > 100 | > 100 | > 100 | > 100 | 
CC(=O)Nc1cccc(N=NN(C)C)c1 | > 100 | > 100 | > 100 | > 100 | > 100 | > 100 | > 100 | > 100 | > 100 | > 100 | > 100 | > 100 | > 100 | > 100 | > 100 | > 100 | > 100 | > 100 | > 100 | 
O=c1oc2cc(O)ccc2c(O)c1Cc1c(O)c2ccc(O)cc2oc1=O | > 100 | > 100 | > 100 | > 100 | > 100 | > 100 | > 100 |  | > 100 | > 100 | > 100 | > 100 | > 100 | > 100 | > 100 | > 100 | > 100 | > 100 | > 100 | 
O=c1cc(-c2ccccc2)[nH]c2nccn12 | > 10 | > 10 | > 10 | > 10 | > 10 |  | > 10 | > 10 | > 10 | > 10 | > 10 | > 10 | > 10 | > 10 | > 10 | > 10 | > 10 | > 10 | > 10 | 
O=C(N/N=C/c1cc(Br)cc(Br)c1[O-])c1ccccc1O.O=C(N/N=C/c1cc(Br)cc(Br)c1[O-])c1ccccc1O.[Co+2] | 9.38 | 11.1 | 10.6 | 4.66 | 17.7 | 17.6 | 12.9 | 21.1 | 20.4 | 28.4 | 17.2 | 17.7 |  | 10.3 | 20 | 16.2 | 15.3 | 14.4 | 5.93 | 0.643
C[C@@H]1CC[C@@]2(OC1)O[C@H]1C[C@H]3[C@@H]4CC[C@H]5C[C@@H](OC6OC(CO)C(OC7OC(CO)C(O)C(OC8OCC(O)C(O)C8O)C7OC7OC(CO)C(O)C(O)C7O)C(O)C6O)[C@H](O)C[C@]5(C)[C@H]4CC[C@]3(C)[C@H]1[C@@H]2C (some centres not stated) | 12.4 | 18.9 | 17.8 | 12.8 | 17.8 | 39.9 | 7.89 | 23.6 | 22 | 27.1 | 21 | 13.3 | 1.53 | 2.94 | 4.17 | > 100 | 27.9 | > 33.9 | 12.5 | 
